Results as given in publication PMC4859512, “Polyamino-Isoprenic Derivatives Block Intrinsic Resistance of P. aeruginosa to Doxycycline and Chloramphenicol In Vitro” (PLoS ONE, 2016).
Several values for one entry are separate records, joined by “and”; a condition that tells them apart may be missing. Identical values can stand only once.

Assays:
Assay type in all cases: cell-based, Pseudomonas aeruginosa
P. aeruginosa PA01 = experiment: Checkerboard assay with doxycycline; conditions: PA01
Description: Serial two-fold dilutions of antimicrobial agents were mixed together in a microtiter plate. The range of concentration of each drug was twice the MIC, down to the eleventh serial two-fold dilutions below this amount. Doxycycline was serially diluted along the X-axis, and the polyamino-isoprenic compound or PAßN was diluted along the Y-axis as indicated. Each well was inoculated with a bacterial inoculum of 5 x 10^5 CFU/ml, and the plates were incubated at 37°C for 18 h under aerobic conditions. Each plate also contained a row and a column in which a serial dilution of polyamino-isoprenic compound or doxycycline, respectively, was present alone to determine the MIC. The FIC index was calculated as follows: FIC index = FIC A + FIC B, where FIC A is the MIC of drug A in the combination/MIC of drug A alone and FIC B is the MIC of drug B in the combination/MIC of drug B alone. The combination was considered synergistic when the FIC index is ≤0.5, and antagonistic when the FIC index is > 4 [26].

[1] = system: P. aeruginosa PT629 (Mex AB overproducer); experiment: Antibiotic susceptibility testing (broth micro-dilution MIC), strain PT629
[2] = system: P. aeruginosa PA01 ERY^R (Mex CD overproducer); experiment: microbe, parasite or virus in culture
[3] = system: P. aeruginosa strains over-expressing efflux pumps (PA01, PT629, PA01-ERY^R, PA0-7H, CMZ091, FB1); experiment: Spotting of logarithmic dilutions on MH agar with antibiotic and compound 3
Description: In a second experiment, 5 μL of logarithmic dilutions of an overnight culture of the 6 strains described in Table 1 were spotted on the MH agar plates prepared as above. An additional assay was also performed with these 6 strains using chloramphenicol as antibiotic instead of doxycycline.
Fig 4 Compound 3 activity against P. aeruginosa strains over-expressing efflux pumps. The ability of bacteria to grow under various conditions was assessed in solid media containing, in a: 2 mg/L doxycycline (left) or a combination of 2 mg/L doxycycline and 10 μM compound 3 (right) and in b: 4 mg/L chloramphenicol (left) or a combination of 4 mg/L chloramphenicol and 10 μM compound 3 (right). 5 μL of logarithmic dilutions of an overnight culture of each strain were spotted on the plates. From top to bottom, PA01, PT629, PA01-ERY^R, PA0-7H, CMZ091 and FB1.

[4] = system: P. aeruginosa CMZ091 (Mex XY overproducer); experiment: Antibiotic susceptibility testing (broth micro-dilution MIC), strain CMZ091
[5] = system: efflux of 1,2'-dinaphthylamine in strain PA01; experiment: Real-time efflux assay (1,2'-dinaphthylamine, glucose-triggered)
Description: The experiments were performed as previously described with slight modifications. For each strain, 20 mL of MHII was inoculated with a single colony from a fresh plate and grown at 37°C to the stationary phase. […] They were then loaded over night with the dye 1,2’-dinaphthylamine (TCI-Europe SA, Zwijndrecht, Belgium) at a final concentration of 32 μM, in the presence of 5 μM CCCP. […] In a 96-well Greiner black microplate (Greiner, Courtaboeuf, France), a gradient of inhibitor (when used) was prepared in PPB, and bacteria were added (100 μL per well). The fluorescence of the cell suspension, was monitored each 22 sec during 1200 sec on an Infinite M200 microplate reader (Tecan; excitation wavelength 370 nm and emission wavelength 420 nm). In order to trigger the transport, glucose (50 mM final concentration) is added at 200 sec. The maximum efficacy of the efflux is the difference between the value obtained without and with glucose addition after 1200 sec. For each compound, the efficiency of efflux inhibition is calculated as the difference between the maximum efficacy of transport and the residual transport obtained at various concentrations of the compound.

[6] = doxycycline MIC in the combination 0.0625 µg/ml
[7] = doxycycline MIC in the combination 0.125 µg/ml
[8] = doxycycline MIC in the combination 0.25 µg/ml
[9] = doxycycline MIC in the combination 0.5 µg/ml
[10] = doxycycline MIC in the combination 1 µg/ml
[11] = doxycycline MIC in the combination 2 µg/ml
[12] = doxycycline MIC in the combination 4 µg/ml
[13] = doxycycline MIC in the combination 8 µg/ml
[14] = doxycycline MIC in the combination 16 µg/ml
[15] = Pseudomonas aeruginosa, read-out: Minimal Inhibitory Concentration

For `CC(C)=CCCC(C)=CCCC(C)=CCNCCCNCCCCNCCCN` [Compound 3], the “Concentration of compound associated” value (P. aeruginosa PA01; [6]) was 93.75 µM, the FIC index (P. aeruginosa PA01; [6]) was 1 and the “Concentration of compound associated” value (P. aeruginosa PA01; [7]) was 46.88 µM. For the same compound, the Effect (P. aeruginosa PA01; [7]) was “Synergistic (synergistic when the FIC index is ≤0.5)”, the FIC index (P. aeruginosa PA01; [7]) was 0.50 and the “Concentration of compound associated” value (P. aeruginosa PA01; [8]) was 23.44 µM. The Effect (P. aeruginosa PA01; [8]) was “Synergistic (synergistic when the FIC index is ≤0.5)”, the FIC index (P. aeruginosa PA01; [8]) was 0.26 and the “Concentration of compound associated” value (P. aeruginosa PA01; [9]) was 11.72 µM. For the same compound, the Effect (P. aeruginosa PA01; [9]) was “Synergistic (synergistic when the FIC index is ≤0.5)”, the FIC index (P. aeruginosa PA01; [9]) was 0.14 and the “Concentration of compound associated” value (P. aeruginosa PA01; [10]) was 5.86 µM. For the same compound, the Effect (P. aeruginosa PA01; [10]) was “Synergistic (synergistic when the FIC index is ≤0.5)”, the FIC index (P. aeruginosa PA01; [10]) was 0.09 and the “Concentration of compound associated” value (P. aeruginosa PA01; [11]) was 2.93 µM. The Effect (P. aeruginosa PA01; [11]) was “Synergistic (synergistic when the FIC index is ≤0.5)”, the FIC index (P. aeruginosa PA01; [11]) was 0.09 and the “Concentration of compound associated” value (P. aeruginosa PA01; [12]) was 2.93 µM. The Effect (P. aeruginosa PA01; [12]) was “Synergistic (synergistic when the FIC index is ≤0.5)”, the FIC index (P. aeruginosa PA01; [12]) was 0.16 and the “Concentration of compound associated” value (P. aeruginosa PA01; [13]) was 0.73 µM. The Effect (P. aeruginosa PA01; [13]) was “Synergistic (synergistic when the FIC index is ≤0.5)”, the FIC index (P. aeruginosa PA01; [13]) was 0.26 and the “Concentration of compound associated” value (P. aeruginosa PA01; [14]) was 0.18 µM. For the same compound, the Effect (P. aeruginosa PA01; [14]) was “Synergistic (synergistic when the FIC index is ≤0.5)”, the FIC index (P. aeruginosa PA01; [14]) was 0.50 and the “FIC index” value (P. aeruginosa PA01; combination with doxycycline) was 0.09. For the same compound, the “MIC of Amikacin in the presence of the compound” value (shortened to “MIC of Amikacin”) ([1]; PT629, compound 10µM) was 64 µg/mL, the “MIC of Ceftazidime in the presence of the compound” value (“MIC of Ceftazidime” for short) ([1]; PT629, compound 10µM) was 8 µg/mL and the “MIC of Ciprofloxacin in the presence of the compound” value (shortened to “MIC of Ciprofloxacin”) ([1]; PT629, compound 10µM) was 0.5 µg/mL. For the same compound, the “MIC of Ticarcillin in the presence of the compound” value (from here on “MIC of Ticarcillin”) ([1]; PT629, compound 10µM) was 64 µg/mL, the MIC [1, 15] was 25 µg/mL and 62.5 µM and the “MIC of Amikacin” value ([2]; PA01 ERY R, compound 10µM) was 32 µg/mL. The “MIC of Ceftazidime” value ([2]; PA01 ERY R, compound 10µM) was 2 µg/mL, the “MIC of Ciprofloxacin” value ([2]; PA01 ERY R, compound 10µM) was 0.125 µg/mL and the “MIC of Ticarcillin” value ([2]; PA01 ERY R, compound 10µM) was 16 µg/mL. The MIC [2, 15] was 25 µg/mL and 62.5 µM, the “dilution of overnight culture at which growth was observed” value ([3]; 2 μg/mL doxycycline + 10 μM compound 3, PA01 or strains overproducing MexCD or MexEF) was 10^−2 and the “dilution above which no growth was observed” value ([3]; 2 μg/mL doxycycline + 10 μM compound 3, all cases) was 10^−5. For the same compound, the “dilution of overnight culture at which growth was observed” value ([3]; 2 μg/mL doxycycline + 10 μM compound 3, cells overproducing MexAB or MexXY) was 10^−4, the growth on agar ([3]; 2 μg/mL doxycycline + 10 μM compound 3, ΔmexB strain) was “did not grow at any of the dilutions” and the “effect on growth with chloramphenicol” value ([3]; 4 mg/L chloramphenicol + 10 μM compound 3, PT629 and PA0-7H) was “slight effect”. For the same compound, the “MIC of Amikacin” value ([4]; CMZ091, compound 10µM) was over 64 µg/mL, the “MIC of Ceftazidime” value ([4]; CMZ091, compound 10µM) was 2 µg/mL and the “MIC of Ciprofloxacin” value ([4]; CMZ091, compound 10µM) was 0.25 µg/mL. The “MIC of Ticarcillin” value ([4]; CMZ091, compound 10µM) was 8 µg/mL, the MIC [4, 15] was 25 µg/mL and 62.5 µM and the “rank of efflux inhibition among compounds 1-4 and PAßN” value [5] was “the most efficient”. The IC50 ([5]; Pseudomonas aeruginosa, 2.5x10^8 cfu/mL, read-out: concentration needed to inhibit 50% of 1,2'DNA efflux) was 31.2 µM, the inhibition at 31.25 µM ([5]; Pseudomonas aeruginosa, compound at 31.25μM) was 60% and the efflux inhibition ([5]; compound at 15.6μM) was “fifty percent efflux inhibition”. The efflux inhibition ([5]; compound at 125μM) was “completely abolished the transportation of dye”.
